Where “and” joins values, the source holds several entries; their conditions need not be identical. Equal entries are not always repeated. Toxic doses and inconclusive results are not listed. Numbered stars: 1 amine (or outer) side, 2 acyl side, 3 side chain; on linkers, the order of the positions; unused ones are H or OH. Bridge positions count the residues as written; N and C are the ends. Square brackets hold non-standard residues; d marks the D form. Peptide text beside a SMILES is read from it. I, II: the chains in the order shown. Actinocin(9to1) = Cc1c2oc3c(C)ccc(C(=O)[*:1])c3nc-2c(C(=O)[*:2])c(N)c1=O; X2 = O=C(C1CC(Cl)CN1[*:1])[*:2]; NMeV = CN[CH](C(=O)O)C(C)C; Sar = CNCC(=O)O
Tested on: BDF1 mice, B16 melanoma ip, median survival T/C
Assay: NCI In Vivo Anticancer Drug Screen. Data for tumor model B16 Melanoma (intraperitoneal) in B6D2F1 (BDF1) mice
Settings: endpoint: median survival time, higher = longer survival
In short: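 Transplantable tumor model; survival or tumor size measured; reported as T/C, treated over vehicle control.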

[1] = dose: 50.0 mg/kg/injection, schedule: Q01DX009 (ip), vehicle: saline with Tween-80
[2] = dose: 100.0 mg/kg/injection, schedule: Q01DX009 (ip), vehicle: saline with Tween-80
[3] = dose: 200.0 mg/kg/injection, schedule: Q01DX009 (ip), vehicle: saline with Tween-80
[4] = dose: 100.0 mg/kg/injection, schedule: Q01DX009 (ip), vehicle: Klucel (hydroxypropylcellulose) (HPC)
[5] = dose: 200.0 mg/kg/injection, schedule: Q01DX009 (ip), vehicle: Klucel (hydroxypropylcellulose) (HPC)
[6] = dose: 400.0 mg/kg/injection, schedule: Q01DX009 (ip), vehicle: Klucel (hydroxypropylcellulose) (HPC)
[7] = dose: 100.0 mg/kg/injection, schedule: Q04DX003 (ip), vehicle: saline

## Cc1c2oc3c(C)ccc(C(=O)NC4C(=O)NC(C(C)C)C(=O)N5CC(Cl)CC5C(=O)N(C)CC(=O)N(C)C(C(C)C)C(=O)OC4C)c3nc-2c(C(=O)NC2C(=O)NC(C(C)C)C(=O)N3CC(Cl)CC3C(=O)N(C)CC(=O)N(C)C(C(C)C)C(=O)OC2C)c(N)c1=O (configuration not stated) (I: TV[X2][Sar][NMeV] / II: TV[X2][Sar][NMeV]; ester I:1-I:C, II:1-II:C; linker I:N-II:N via Actinocin(9to1); configuration not given here)
dose: 1080.0 micrograms/kg/injection, schedule: Q04DX003 (ip), vehicle: saline + alcohol
  T/C: 159 % of control
dose: 1800.0 micrograms/kg/injection, schedule: Q04DX003 (ip), vehicle: saline + alcohol
  T/C: 160 % of control

## CNC(=S)N(C1CCCCC1)C1CCCCC1
[1]
  T/C: 101 % of control
[2]
  T/C: 95 % of control
[3]
  T/C: 98 % of control

## CSc1ncnc2c1ncn2C1OC(CO)C(O)C1O (configuration not stated)
dose: 2.0 mg/kg/injection, schedule: Q01DX009 (ip), vehicle: saline sonified
  T/C: 95 % of control
dose: 4.0 mg/kg/injection, schedule: Q01DX009 (ip), vehicle: saline sonified
  T/C: 88 % of control
dose: 7.5 mg/kg/injection, schedule: Q01DX009 (ip), vehicle: saline with Tween-80
  T/C: 100 % of control
dose: 8.0 mg/kg/injection, schedule: Q01DX009 (ip), vehicle: saline sonified
  T/C: 86 % of control
dose: 15.0 mg/kg/injection, schedule: Q01DX009 (ip), vehicle: saline with Tween-80
  T/C: 97 % of control
dose: 16.0 mg/kg/injection, schedule: Q01DX009 (ip), vehicle: saline sonified
  T/C: 95 % of control

## CN(CO)c1nc(N(C)CO)nc(N(C)CO)n1
dose: 6.25 mg/kg/injection, schedule: Q01DX009 (ip), vehicle: saline
  T/C: 111 % of control
dose: 12.5 mg/kg/injection, schedule: Q01DX009 (ip), vehicle: saline
  T/C: 112 % of control and 118 % of control
dose: 25.0 mg/kg/injection, schedule: Q01DX009 (ip), vehicle: saline
  T/C: 110 % of control and 124 % of control
dose: 50.0 mg/kg/injection, schedule: Q01DX009 (ip), vehicle: saline
  T/C: 120 % of control

## CC1=NN(c2cccc(Cl)c2)C(=O)C1
[1]
  T/C: 108 % of control
[2]
  T/C: 109 % of control
[3]
  T/C: 101 % of control

## N#Cc1ccccc1N=NNc1ccccc1C#N
dose: 0.78 mg/kg/injection, schedule: Q01DX009 (ip), vehicle: Klucel (hydroxypropylcellulose) (HPC)
  T/C: 90 % of control
dose: 1.56 mg/kg/injection, schedule: Q01DX009 (ip), vehicle: Klucel (hydroxypropylcellulose) (HPC)
  T/C: 102 % of control
dose: 3.12 mg/kg/injection, schedule: Q01DX009 (ip), vehicle: Klucel (hydroxypropylcellulose) (HPC)
  T/C: 96 % of control
dose: 12.5 mg/kg/injection, schedule: Q01DX009 (ip), vehicle: Klucel (hydroxypropylcellulose) (HPC)
  T/C: 86 % of control

## CCCCCCCCCCCCCCCCN(C)S(=O)(=O)c1ccc2sc(SC)[n+](C)c2c1 (tested in a mixture with another compound)
dose: 12.5 mg/kg/injection, schedule: Q04DX003 (ip), vehicle: saline with Tween-80
  T/C: 100 % of control
dose: 25.0 mg/kg/injection, schedule: Q04DX003 (ip), vehicle: saline with Tween-80
  T/C: 100 % of control

## O=C1C(=O)c2ccccc2-c2ccccc21.O=C1C(=O)c2ccccc2-c2ccccc21.[Hg]
dose: 1.5 mg/kg/injection, schedule: Q01DX009 (ip), vehicle: saline with Tween-80
  T/C: 94 % of control and 99 % of control
dose: 3.0 mg/kg/injection, schedule: Q01DX009 (ip), vehicle: saline with Tween-80
  T/C: 88 % of control and 90 % of control

## Cc1nc(/N=N/c2nc(C)c(C)[nH]2)[nH]c1C
[4]
  T/C: 102 % of control
[5]
  T/C: 101 % of control
[6]
  T/C: 96 % of control

## C/C=C/C1=CC(=O)C(O)C1O (configuration not stated)
dose: 25.0 mg/kg/injection, schedule: Q01DX009 (ip), vehicle: water
  T/C: 92 % of control
dose: 50.0 mg/kg/injection, schedule: Q01DX009 (ip), vehicle: water
  T/C: 117 % of control
dose: 100.0 mg/kg/injection, schedule: Q01DX009 (ip), vehicle: water
  T/C: 122 % of control
dose: 200.0 mg/kg/injection, schedule: Q01DX009 (ip), vehicle: water
  T/C: 122 % of control

## CCOC(=O)CCCc1ccc(N=NN(C)C)cc1
dose: 1.56 mg/kg/injection, schedule: Q01DX009 (ip), vehicle: saline with Tween-80
  T/C: 102 % of control
dose: 3.13 mg/kg/injection, schedule: Q01DX009 (ip), vehicle: saline with Tween-80
  T/C: 105 % of control
dose: 6.25 mg/kg/injection, schedule: Q01DX009 (ip), vehicle: saline with Tween-80
  T/C: 100 % of control

## Cc1c(N)nc(C(CC(N)=O)NCC(N)C(N)=O)nc1C(=O)NC(C(=O)NC(C)C(O)C(C)C(=O)NC(C(=O)NCCc1nc(-c2nc(C(=O)NCCCNC(C)c3ccccc3)cs2)cs1)C(C)O)C(OC1OC(CO)C(O)C(O)C1OC1OC(CO)C(O)C(OC(N)=O)C1O)c1cnc[nH]1 (configuration not stated)
dose: 0.25 mg/kg/injection, schedule: Q01DX009 (ip), vehicle: saline
  T/C: 105 % of control
dose: 0.5 mg/kg/injection, schedule: Q01DX009 (ip), vehicle: saline
  T/C: 102 % of control
dose: 1.0 mg/kg/injection, schedule: Q01DX009 (ip), vehicle: saline
  T/C: 106 % of control
dose: 2.0 mg/kg/injection, schedule: Q01DX009 (ip), vehicle: saline
  T/C: 110 % of control
dose: 4.0 mg/kg/injection, schedule: Q01DX009 (ip), vehicle: saline
  T/C: 108 % of control
dose: 8.0 mg/kg/injection, schedule: Q01DX009 (ip), vehicle: saline
  T/C: 111 % of control

## CC(C)=CCc1c2c(c(O)c3c(=O)c(-c4ccc(O)c(O)c4)coc13)C=CC(C)(C)O2
dose: 25.0 mg/kg/injection, schedule: Q01DX009 (ip), vehicle: saline with Tween-80
  T/C: 100 % of control
[1]
  T/C: 94 % of control
[2]
  T/C: 94 % of control
[3]
  T/C: 100 % of control

## C=CCN(CC=C)P(=O)(N1CC1C)N1CC1C (configuration not stated)
dose: 0.31 mg/kg/injection, schedule: Q01DX009 (ip), vehicle: saline
  T/C: 109 % of control
dose: 0.63 mg/kg/injection, schedule: Q01DX009 (ip), vehicle: saline
  T/C: 112 % of control
dose: 1.25 mg/kg/injection, schedule: Q01DX009 (ip), vehicle: saline
  T/C: 122 % of control
dose: 2.5 mg/kg/injection, schedule: Q01DX009 (ip), vehicle: saline
  T/C: 99 % of control

## CCCC1(C)COB(c2ccc(C)cc2)OC1
dose: 25.0 mg/kg/injection, schedule: Q01DX009 (ip), vehicle: Klucel (hydroxypropylcellulose) (HPC)
  T/C: 93 % of control
dose: 50.0 mg/kg/injection, schedule: Q01DX009 (ip), vehicle: Klucel (hydroxypropylcellulose) (HPC)
  T/C: 90 % of control
[4]
  T/C: 97 % of control
[5]
  T/C: 86 % of control
[6]
  T/C: 90 % of control

## CCc1occ(C(=O)OC)c1C(=O)OC
dose: 100.0 mg/kg/injection, schedule: Q04DX003 (ip), vehicle: saline with Tween-80
  T/C: 102 % of control
dose: 200.0 mg/kg/injection, schedule: Q04DX003 (ip), vehicle: saline with Tween-80
  T/C: 97 % of control
dose: 400.0 mg/kg/injection, schedule: Q04DX003 (ip), vehicle: saline with Tween-80
  T/C: 95 % of control

## CC1Cc2c(Cl)cc(C(=O)NC(Cc3ccccc3)C(=O)O)c(O)c2C(=O)O1 (configuration not stated)
dose: 0.12 mg/kg/injection, schedule: Q01DX009 (ip), vehicle: saline with Tween-80
  T/C: 112 % of control
dose: 0.25 mg/kg/injection, schedule: Q01DX009 (ip), vehicle: saline with Tween-80
  T/C: 119 % of control
dose: 0.5 mg/kg/injection, schedule: Q01DX009 (ip), vehicle: saline with Tween-80
  T/C: 114 % of control

## NNC(=O)c1ccc(Cl)cc1Nc1ccc(F)cc1
dose: 25.0 mg/kg/injection, schedule: Q04DX003 (ip), vehicle: saline
  T/C: 92 % of control
dose: 50.0 mg/kg/injection, schedule: Q04DX003 (ip), vehicle: saline
  T/C: 97 % of control
[7]
  T/C: 100 % of control

## CCc1ccc(NC(=O)Nc2ccccc2OC)cc1
dose: 100.0 mg/kg/injection, schedule: Q01DX009 (ip), vehicle: gum acacia
  T/C: 105 % of control
dose: 200.0 mg/kg/injection, schedule: Q01DX009 (ip), vehicle: gum acacia
  T/C: 98 % of control
dose: 400.0 mg/kg/injection, schedule: Q01DX009 (ip), vehicle: gum acacia
  T/C: 101 % of control

## COC(=O)[C@@H]1[C@@H](O)[C@H](OC(=O)c2cc(OC)c(OC)c(OC)c2)C[C@@H]2CN3CCc4c([nH]c5ccccc45)[C@H]3C[C@@H]21
dose: 1.5 mg/kg/injection, schedule: Q01DX009 (ip), vehicle: Klucel (hydroxypropylcellulose) (HPC)
  T/C: 107 % of control
dose: 3.0 mg/kg/injection, schedule: Q01DX009 (ip), vehicle: Klucel (hydroxypropylcellulose) (HPC)
  T/C: 98 % of control
dose: 6.0 mg/kg/injection, schedule: Q01DX009 (ip), vehicle: Klucel (hydroxypropylcellulose) (HPC)
  T/C: 97 % of control

## CC(NC(=O)C(F)(F)F)C(=O)O (configuration not stated)
[7]
  T/C: 100 % of control
dose: 200.0 mg/kg/injection, schedule: Q04DX003 (ip), vehicle: saline
  T/C: 86 % of control
